From patent US20190382839A1, “[…]” (Bayer Pharma Aktiengesellschaft, priority 2016, published 2019)
Like-named read-outs stand apart in the source and are kept apart here.

Tested on: NHL patients (FL, MZL, MCL, DLBCL, transformed indolent lymphoma, CLL)
Source text: Best response status and progression-free survival (hereinafter referred to as “PFS”) from independent review assessment were used for gene expression analysis. A total number of 24 patients including 3 complete responders, 1 confirmed (hereinafter referred to as “CR”) and 2 unconfirmed (hereinafter referred to as “CRu”) and 5 partial responders (hereinafter referred to as “PR”), 11 stable diseases (hereinafter referred to as “SD”) and 5 progressive diseases (hereinafter referred to as “PD”) with follicular lymphoma (hereinafter referred to as “FL”), marginal zone lymphoma (hereinafter referred to as “MZL”), mantle cell lymphoma (“MCL”), diffuse large B-cell lymphoma (hereinafter referred to as “DLBCL”), transformed indolent lymphoma or CLL who had baseline RNA expression profiling data of sufficient quantity and quality were used for gene expression analysis as listed in Table 1 (given in the experimental section).
Bioinformatics and statistical analyses were done for all 24 NHL patients. […] For GSEA, 34 gene sets (vide Tables 2 and 3) sharing key biological function/process in apoptosis, B-cell receptor (hereinafter referred to as “BCR”) signaling, IL6/JAK/STAT3, cytokine/chemokine, MAPK, MYC, MYD88, NFAT, NFkB, NOTCH, PI3K or tumor microenvironment (refs 3 and 4) were selected and generated.
A weighted gene expression score (hereinafter referred to as “WGS”) reflecting the overall expression level for each gene set was generated from logistic regression and Cox proportional hazards models to assess the association with response status (best-response-WGS) and PFS (PFS-WGS), respectively.
Both the best-response-WGS as well as the PFS-WGS were in turn used in logistic regression or Cox regression models to assess the association of either WGS with the endpoints. Moreover, the raw best-response WGS was used to compute non-cross validated AUC estimates for responder (CR+PR) and non-responder (SD+PD) classifications.

COc1c(OCCCN2CCOCC2)ccc2c1N=C(NC(=O)c1cnc(N)nc1)N1CCN=C21 [copanlisib]
median PFS (CSTB, median gene expression level as cutoff, first printed group (high expression, shorter PFS)): 74 days
number of patients with CR (of the 24 analyzable patients): 3
number of patients with PD (of the 24 analyzable patients): 5
number of patients with PR (of the 24 analyzable patients): 5
number of patients with SD (of the 24 analyzable patients): 11
objective response rate (patients with high BCR pathway WGS compared to low): increased
objective response rate (patients with high PI3K pathway WGS compared to low): increased
